From patent US9663460B2, “Sulfur derivatives as chemokine receptor modulators” (ALLERGAN, INC., priority 2010, dated 2017)
pIC50: −log10 of the molar value.

molecular target: CCR2 (Homo sapiens (Human), UniProt P41597); assay: Calcium activity assayed on the FLIPR Tetra in HEK-Gqi5 cells stably expressing CCR2; assay type: cell-based; settings: FLIPR Tetra calcium assay
Sequence (P41597 whole entry, species assumed): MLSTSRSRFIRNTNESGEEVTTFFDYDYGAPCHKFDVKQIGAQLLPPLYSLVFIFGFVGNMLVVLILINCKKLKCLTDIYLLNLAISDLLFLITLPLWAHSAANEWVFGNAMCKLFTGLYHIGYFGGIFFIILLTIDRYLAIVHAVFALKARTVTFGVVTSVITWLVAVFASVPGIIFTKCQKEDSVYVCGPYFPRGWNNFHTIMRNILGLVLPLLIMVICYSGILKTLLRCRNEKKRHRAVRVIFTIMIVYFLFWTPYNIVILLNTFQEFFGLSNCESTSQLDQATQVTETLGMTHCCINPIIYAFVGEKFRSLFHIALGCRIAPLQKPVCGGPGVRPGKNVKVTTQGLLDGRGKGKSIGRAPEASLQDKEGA

Row | SMILES | CCR2 % ANTAGONISM [%] | pIC50
1 | C[S+]([O-])c1ccc(Cl)cc1NS(=O)(=O)c1ccccc1 (stereo not shown) [N-[5-chloro-2-(methylsulfinyl)phenyl]benzenesulfonamide] | 48 | –
2 | C[S+]([O-])c1ccc(Cl)cc1NS(=O)(=O)c1ccco1 (stereo not shown) [N-[5-chloro-2-(methylsulfinyl)phenyl]furan-2-sulfonamide] | 96 | 5.63
3 | C[S+]([O-])c1ccc(Cl)cc1NS(=O)(=O)c1cccs1 (stereo not shown) [N-[5-chloro-2-(methylsulfinyl)phenyl]thiophene-2-sulfonamide] | 53 | 5.95
4 | CS(=O)(=O)c1ccc(Cl)cc1NS(=O)(=O)c1ccc(F)cc1F [N-[5-chloro-2-(methylsulfonyl)phenyl]-2,4-difluorobenzenesulfonamide] | 91 | 6.45
5 | CS(=O)(=O)c1ccc(Cl)cc1NS(=O)(=O)c1ccc(I)cc1 [N-[5-chloro-2-(methylsulfonyl)phenyl]-4-iodobenzenesulfonamide] | 92 | 5.97
6 | CC(C)c1ccc(S(=O)(=O)Nc2cc(Cl)ccc2S(C)(=O)=O)cc1 [N-[5-chloro-2-(methylsulfonyl)phenyl]-4-isopropylbenzenesulfonamide] | 0 | –
7 | Cc1ccc(S(=O)(=O)Nc2cc(Cl)ccc2S(C)(=O)=O)o1 [N-[5-chloro-2-(methylsulfonyl)phenyl]-5-methylfuran-2-sulfonamide] | 90 | 6.00
8 | CSc1ccc(Cl)cc1NS(=O)(=O)c1ccc(F)cc1F [N-[5-chloro-2-(methylthio)phenyl]-2,4-difluorobenzenesulfonamide] | 87 | –
9 | CSc1ccc(Cl)cc1NS(=O)(=O)c1ccc(C(F)(F)F)c([N+](=O)[O-])c1 [N-[5-chloro-2-(methylthio)phenyl]-3-nitro-4-(trifluoromethyl)benzenesulfonamide] | 90 | 6.31
10 | CSc1ccc(Cl)cc1NS(=O)(=O)c1ccc(I)cc1 [N-[5-chloro-2-(methylthio)phenyl]-4-iodobenzenesulfonamide] | 71 | 5.69
11 | CSc1ccc(Cl)cc1NS(=O)(=O)c1ccc(C)c([N+](=O)[O-])c1 [N-[5-chloro-2-(methylthio)phenyl]-4-methyl-3-nitrobenzenesulfonamide] | 92 | 6.17
12 | CSc1ccc(Cl)cc1NS(=O)(=O)c1ccco1 [N-[5-chloro-2-(methylthio)phenyl]furan-2-sulfonamide] | 93 | 6.03
13 | CSc1ccc(Cl)cc1NS(=O)(=O)c1cccs1 [N-[5-chloro-2-(methylthio)phenyl]thiophene-2-sulfonamide] | 0 | –
14 | NCC[S+]([O-])c1ccc(Cl)cc1NS(=O)(=O)c1ccc(Cl)c(C(F)(F)F)c1 (stereo not shown) [N-{2-[(2-aminoethyl)sulfinyl]-5-chlorophenyl}-4-chloro-3-(trifluoromethyl)benzenesulfonamide] | 84 | 5.45
15 | NCCSc1ccc(Cl)cc1NS(=O)(=O)c1ccc(Cl)c(C(F)(F)F)c1 [N-{2-[(2-aminoethyl)thio]-5-chlorophenyl}-4-chloro-3-(trifluoromethyl)benzenesulfonamide] | 97 | 5.97
16 | Nc1cccc(C[S+]([O-])c2ccc(Cl)cc2NS(=O)(=O)c2ccc(F)cc2F)c1 (stereo not shown) [N-{2-[(3-aminobenzyl)sulfinyl]-5-chlorophenyl}-2,4-difluorobenzenesulfonamide] | 99 | 6.35
17 | Nc1cccc(C[S+]([O-])c2ccc(Cl)cc2NS(=O)(=O)c2ccccc2)c1 (stereo not shown) [N-{2-[(3-aminobenzyl)sulfinyl]-5-chlorophenyl}benzenesulfonamide] | 62 | 5.59
18 | Nc1cccc(CS(=O)(=O)c2ccc(Cl)cc2NS(=O)(=O)c2ccc(F)cc2F)c1 [N-{2-[(3-aminobenzyl)sulfonyl]-5-chlorophenyl}-2,4-difluorobenzenesulfonamide] | 89 | 6.14
19 | Nc1cccc(CS(=O)(=O)c2ccc(Cl)cc2NS(=O)(=O)c2ccc(Cl)cc2)c1 [N-{2-[(3-aminobenzyl)sulfonyl]-5-chlorophenyl}-4-chlorobenzenesulfonamide] | 99 | 6.38
20 | Nc1cccc(CS(=O)(=O)c2ccc(Cl)cc2NS(=O)(=O)c2ccccc2)c1 [N-{2-[(3-aminobenzyl)sulfonyl]-5-chlorophenyl}benzenesulfonamide] | 52 | 5.91
21 | Nc1cccc(CSc2ccc(Cl)cc2NS(=O)(=O)c2ccc(F)cc2F)c1 [N-{2-[(3-aminobenzyl)thio]-5-chlorophenyl}-2,4-difluorobenzenesulfonamide] | 64 | 5.49
22 | Nc1cccc(CSc2ccc(Cl)cc2NS(=O)(=O)c2cccc(Cl)c2)c1 [N-{2-[(3-aminobenzyl)thio]-5-chlorophenyl}-3-chlorobenzenesulfonamide] | 95 | 5.84
23 | Nc1cccc(CSc2ccc(Cl)cc2NS(=O)(=O)c2ccc(Cl)cc2F)c1 [N-{2-[(3-aminobenzyl)thio]-5-chlorophenyl}-4-chloro-2-fluorobenzenesulfonamide] | 88 | 5.55

More lines, in order of rising pIC50, values ahead:

Row | CCR2 % ANTAGONISM [%] | pIC50 | SMILES
24 | 99 | 6.46 | CS(=O)(=O)c1ccc(Cl)cc1NS(=O)(=O)c1ccco1 [N-[5-chloro-2-(methylsulfonyl)phenyl]furan-2-sulfonamide]
25 | 96 | 6.61 | Nc1cccc(CS(=O)(=O)c2ccc(Cl)cc2NS(=O)(=O)c2ccc(Cl)cc2F)c1 [N-{2-[(3-aminobenzyl)sulfonyl]-5-chlorophenyl}-4-chloro-2-fluorobenzenesulfonamide]
26 | 97 | 6.67 | CS(=O)(=O)c1ccc(Cl)cc1NS(=O)(=O)c1ccc(C(F)(F)F)c([N+](=O)[O-])c1 [N-[5-chloro-2-(methylsulfonyl)phenyl]-3-nitro-4-(trifluoromethyl)benzenesulfonamide]
27 | 89 | 6.68 | Cc1ccc(S(=O)(=O)Nc2cc(Cl)ccc2S(C)(=O)=O)cc1[N+](=O)[O-] [N-[5-chloro-2-(methylsulfonyl)phenyl]-4-methyl-3-nitrobenzenesulfonamide]
28 | 76 | 6.71 | Cc1ccc(S(=O)(=O)Nc2cc(Cl)ccc2[S+](C)[O-])o1 (stereo not shown) [N-[5-chloro-2-(methylsulfinyl)phenyl]-5-methylfuran-2-sulfonamide]
29 | 101 | 6.74 | Cc1ccc(S(=O)(=O)Nc2cc(Cl)ccc2[S+](C)[O-])cc1[N+](=O)[O-] (stereo not shown) [N-[5-chloro-2-(methylsulfinyl)phenyl]-4-methyl-3-nitrobenzenesulfonamide]
30 | 107 | 6.75 | COc1ccc(S(=O)(=O)Cc2cccc(N)c2)c(NS(=O)(=O)c2cc3ccccc3o2)c1 [N-{2-[(3-aminobenzyl)sulfonyl]-5-methoxyphenyl}-1-benzofuran-2-sulfonamide]
31 | 99 | 6.80 | Nc1cccc(C[S+]([O-])c2ccc(Cl)cc2NS(=O)(=O)c2ccc(Cl)cc2)c1 (stereo not shown) [N-{2-[(3-aminobenzyl)sulfinyl]-5-chlorophenyl}-4-chlorobenzenesulfonamide]
32 | 98 | 6.89 | Nc1ccccc1CS(=O)(=O)c1ccc(Cl)cc1NS(=O)(=O)c1cc2ccccc2o1 [N-{2-[(2-aminobenzyl)sulfonyl]-5-chlorophenyl}-1-benzofuran-2-sulfonamide]
33 | 93 | 6.94 | Nc1ccccc1C[S+]([O-])c1ccc(Cl)cc1NS(=O)(=O)c1cc2ccccc2o1 (stereo not shown) [N-{2-[(2-aminobenzyl)sulfinyl]-5-chlorophenyl}-1-benzofuran-2-sulfonamide]
34 | 95 | 6.95 | Nc1cccc(C[S+]([O-])c2ccc(Cl)cc2NS(=O)(=O)c2ccc(Cl)cc2F)c1 (stereo not shown) [N-{2-[(3-aminobenzyl)sulfinyl]-5-chlorophenyl}-4-chloro-2-fluorobenzenesulfonamide]
35 | 91 | 7.00 | Nc1ccccc1CSc1ccc(Cl)cc1NS(=O)(=O)c1cc2ccccc2o1 [N-{2-[(2-aminobenzyl)thio]-5-chlorophenyl}-1-benzofuran-2-sulfonamide]
36 | 100 | 7.07 | COc1ccc([S+]([O-])Cc2cccc(N)c2)c(NS(=O)(=O)c2cc3ccccc3o2)c1 (stereo not shown) [N-{2-[(3-aminobenzyl)sulfinyl]-5-methoxyphenyl}-1-benzofuran-2-sulfonamide]
37 | 77 | 7.15 | CSc1ccc(Cl)cc1NS(=O)(=O)c1ccc(C)o1 [N-[5-chloro-2-(methylthio)phenyl]-5-methylfuran-2-sulfonamide]
38 | 110 | 7.24 | Nc1cccc(C[S+]([O-])c2ccccc2NS(=O)(=O)c2cc3ccccc3o2)c1 (stereo not shown) [N-{2-[(3-aminobenzyl)sulfinyl]phenyl}-1-benzofuran-2-sulfonamide]
39 | 93 | 7.38 | CS(=O)(=O)c1ccc(Cl)cc1NS(=O)(=O)c1cc2ccccc2o1 [N-[5-chloro-2-(methylsulfonyl)phenyl]-1-benzofuran-2-sulfonamide]
40 | 94 | 7.39 | Nc1cccc(CS(=O)(=O)c2ccccc2NS(=O)(=O)c2cc3ccccc3o2)c1 [N-{2-[(3-aminobenzyl)sulfonyl]phenyl}-1-benzofuran-2-sulfonamide]
41 | 91 | 7.42 | Nc1cccc(C[S+]([O-])c2ccc(F)cc2NS(=O)(=O)c2cc3ccccc3o2)c1 (stereo not shown) [N-{2-[(3-aminobenzyl)sulfinyl]-5-fluorophenyl}-1-benzofuran-2-sulfonamide]
42 | 99 | 7.59 | CSc1ccc(Cl)cc1NS(=O)(=O)c1cc2ccccc2o1 [N-[5-chloro-2-(methylthio)phenyl]-1-benzofuran-2-sulfonamide]
43 | 90 | 7.66 | Nc1cccc(CS(=O)(=O)c2ccc(F)cc2NS(=O)(=O)c2cc3ccccc3o2)c1 [N-{2-[(3-aminobenzyl)sulfonyl]-5-fluorophenyl}-1-benzofuran-2-sulfonamide]
